Laboratory results as given in patent publication US20050004186A1, “MEK inhibiting compounds” (Pfizer Inc, priority 2002, published 2005).

Columns and labels:
MEK [1] = assay: Cellular assay for measuring MEK inhibition, C26CPA1 (inhibition of ERK phosphorylation in C26 cells); type: cell-based, murine; conditions: murine colon 26 (C26) carcinoma cells, one hour at 37 C
Procedure, shortened: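 Exponentially growing murine C26 carcinoma cells treated with test compound for one hour at 37° C. CPA1 read-out: Western blot of lysates with dually phosphorylated ERK1/2 antibody, re-probed for total ERK1/2. ELSA read-out: pERK enzyme immunometric ELISA on SDS lysates diluted 1:15.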

MEK [2] = assay: Cellular assay for measuring MEK inhibition, C26ELSA (pERK ELISA format in C26 cells); type: cell-based, murine; conditions: for IC50: murine colon 26 (C26) carcinoma cells, one hour at 37 C; for C26ELSA % Inhibition @ 5 μM / C26ELSA % Inhib @ 0.5 μM: C26 cells
Description: Cellular Assay for Measuring MEK Inhibition
MEK inhibitors were evaluated by determining their ability to inhibit phosphorylation of MAP kinase (ERK) in murine colon 26 (C26) carcinoma cells. Since ERK1 and ERK2 represent the only known substrates for MEK1 and MEK2, the measurement of inhibition of ERK phosphorylation in cells provides direct read out of cellular MEK inhibition by the compounds of the invention. Detection of phosphorylation of ERK was carried out either by Western blot or ELISA format. Briefly, the assays involve treatment of exponentially growing C26 cells with varying concentrations of the test compound (or vehicle control) for one hour at 37≡ C. For Western blot assay, cells were rinsed free of compound/vehicle and lysed in a solution containing 70 mM NaCl, 50 mM glycerol phosphate, 10 mM HEPES, […], 1% Triton X-100, 1 mM Na3VO4, 100 μM PMSF, 10 μM leupeptin and 10 μM pepstatin. Supernatants were then subjected to gel electrophoresis and hybridized to a primary antibody recognizing dually phosphorylated ERK1 and ERK2. To evaluate total MAPK levels, blots were subsequently ‘stripped’ and re-probed with a 1:1 mixture of polyclonal antibodies recognizing unphosphorylated ERK1 and ERK2. For pERK ELISA assay, pERK TiterZyme Enzyme immunometric Assay kits were acquired from Assay Designs, Inc (Ann Arbor, Mich.). Briefly, cells were harvested in lysis solution containing 50 mM β-glycerophosphate, 10 mM HEPES, pH7.4, 70 mM NaCl, 2 mM EDTA and 1% SDS and protein lysates were diluted 1:15 with supplied Assay buffer prior to the execution of the assay. The subsequent steps were carried out essentially as recommended by the manufacturer.

| IC50 (MEK [1]) | melting point | IC50 (MEK [2]) | SMILES | C26ELSA % Inhibition @ 5 μM (MEK [2]) | C26ELSA % Inhib @ 0.5 μM (MEK [2]) |
| --- | --- | --- | --- | --- | --- |
| 180 nM | 121 to 122 °C | – | CCN(CCCCO)c1nnc(-c2ccc(F)c(F)c2Nc2ccc(I)cc2F)o1 [Example 27, 4-({5-[3,4-Difluoro-2-(2-fluoro-4-iodo-phenylamino)-phenyl]-[1,3,4]oxadiazol-2-yl}-ethyl-amino)-butan-1-ol] | – | – |
| 74 nM | 216 to 217 °C | – | OC1CCN(c2nnc(-c3ccc(F)c(F)c3Nc3ccc(I)cc3F)o2)CC1 [Example 28, 1-{5-[3,4-Difluoro-2-(2-fluoro-4-iodo-phenylamino)-phenyl]-[1,3,4]oxadiazol-2-yl}-piperidin-4-ol] | – | – |
| 15 nM | 100 to 103 °C | – | OCCNc1nnc(-c2ccc(F)c(F)c2Nc2ccc(I)cc2F)o1 [Example 29, 2-{5-[3,4-Difluoro-2-(2-fluoro-4-iodo-phenylamino)-phenyl]-[1,3,4]oxadiazol-2-ylamino}-ethanol] | – | – |
| 12 nM | 82 to 83 °C | – | OCCCCNc1nnc(-c2ccc(F)c(F)c2Nc2ccc(I)cc2F)o1 [Example 31, 4-{5-[3,4-Difluoro-2-(2-fluoro-4-iodo-phenylamino)-phenyl]-[1,3,4]oxadiazol-2-ylamino}-butan-1-ol] | – | – |
| 120 nM | 119 to 121 °C | – | OCCCCCNc1nnc(-c2ccc(F)c(F)c2Nc2ccc(I)cc2F)o1 [Example 32, 5-{5-[3,4-Difluoro-2-(2-fluoro-4-iodo-phenylamino)-phenyl]-[1,3,4]oxadiazol-2-ylamino}-pentan-1-ol] | – | – |
| 16 nM | 154 to 157 °C | – | CCc1ccc(Nc2c(-c3nnc(NCCNC)o3)ccc(F)c2F)c(F)c1 [Example 67, N-{5-[2-(4-Ethyl-2-fluoro-phenylamino)-3,4-difluoro-phenyl]-[1,3,4]oxadiazol-2-yl}-N′-methyl-ethane-1,2-diamine] | – | – |
| 50 nM | 233 to 238 °C | – | CCc1ccc(Nc2c(-c3nnc(NCCN4CCOCC4)o3)ccc(F)c2F)c(F)c1 [Example 68, {5-[2-(4-Ethyl-2-fluoro-phenylamino)-3,4-difluoro-phenyl]-[1,3,4]oxadiazol-2-yl}-(2-morpholin-4-yl-ethyl)-amine] | – | – |
| 100 nM | 100 to 103 °C | – | CCc1ccc(Nc2c(-c3nnc(NCCO)o3)ccc(F)c2F)c(F)c1 [Example 69, 2-{5-[2-(4-Ethyl-2-fluoro-phenylamino)-3,4-difluoro-phenyl]-[1,3,4]oxadiazol-2-ylamino}-ethanol] | – | – |
| 180 nM | 238 to 239 °C | – | CCNc1nnc(-c2ccc(F)c(F)c2Nc2ccc(I)cc2F)s1 [Example 71, {5-[3,4-Difluoro-2-(2-fluoro-4-iodo-phenylamino)-phenyl]-[1,3,4]thiadiazol-2-yl}-ethyl-amine] | – | – |
| – | 115.9 to 116.5 °C | 3 nM | C#Cc1ccc(Nc2c(-c3nnc(NCCO)o3)ccc(F)c2F)c(F)c1 [Example 140, 2-{5-[2-(4-Ethynyl-2-fluoro-phenylamino)-3,4-difluoro-phenyl]-[1,3,4]oxadiazol-2-ylamino}-ethanol] | – | – |
| – | 97 to 98 °C | – | CCc1nnc(-c2ccc(F)c(F)c2Nc2ccc(I)cc2F)o1 [Example 143, [6-(5-Ethyl-[1,3,4]oxadiazol-2-yl)-2,3-difluoro-phenyl]-(2-fluoro-4-iodo-phenyl)-amine] | 88% | – |
| – | – | – | C#Cc1ccc(Nc2c(-c3nnc(CC)o3)ccc(F)c2F)c(F)c1 [Example 144, [6-(5-Ethyl-[1,3,4]oxadiazol-2-yl)-2,3-difluoro-phenyl]-(4-ethynyl-2-fluoro-phenyl)-amine] | 43% | – |
| – | – | – | CCc1ccc(Nc2c(-c3nnc(CCCBr)o3)ccc(F)c2F)c(F)c1 [Example 145, {6-[5-(3-Bromo-propyl)-[1,3,4]oxadiazol-2-yl]-2,3-difluoro-phenyl}-(4-ethyl-2-fluoro-phenyl)-amine] | 13% | – |
| – | – | – | CCc1ccc(Nc2c(-c3nnc(CCCN4CCOCC4)o3)ccc(F)c2F)c(F)c1 [Example 146, {2,3-Difluoro-6-[5-(3-morpholin-4-yl-propyl)-[1,3,4]oxadiazol-2-yl]-phenyl}-(4-ethyl-2-fluoro-phenyl)-amine] | 6% | – |
| – | 102 to 106 °C | 34000 nM | OCCCc1ccc(Nc2c(-c3nnc(NCCN4CCOCC4)o3)ccc(F)c2F)c(F)c1 [Example 147, 3-(4-{2,3-Difluoro-6-[5-(2-morpholin-4-yl-ethylamino)-[1,3,4]oxadiazol-2-yl]-phenylamino}-3-fluoro-phenyl)-propan-1-ol] | – | – |
| – | 146 to 148 °C | 63 nM | C#Cc1ccc(Nc2c(-c3nnc(NCCN4CCOCC4)o3)ccc(F)c2F)c(F)c1 [Example 148, {5-[2-(4-Ethynyl-2-fluoro-phenylamino)-3,4-difluoro-phenyl]-[1,3,4]oxadiazol-2-yl}-(2-morpholin-4-yl-ethyl)-amine] | – | – |
| – | – | – | CC(=O)c1ccc(Nc2c(-c3nnc(NCCN4CCOCC4)o3)ccc(F)c2F)c(F)c1 [Example 149, 1-(4-{2,3-Difluoro-6-[5-(2-morpholin-4-yl-ethylamino)-[1,3,4]oxadiazol-2-yl]-phenylamino}-3-fluoro-phenyl)-ethanone] | 14% | 2% |
| – | 174 to 176 °C | 92 nM | OC[C@H](O)CNc1nnc(-c2ccc(F)c(F)c2Nc2ccc(I)cc2F)o1 [Example 150, 3-{5-[3,4-Difluoro-2-(2-fluoro-4-iodo-phenylamino)-phenyl]-[1,3,4]oxadiazol-2-ylamino}-propane-1,2 (R)-diol] | – | – |
| – | – | 120 nM | C#Cc1ccc(Nc2c(-c3nnc(NC[C@@H](O)CO)o3)ccc(F)c2F)c(F)c1 [Example 151, 3-{5-[2-(4-Ethynyl-2-fluoro-phenylamino)-3,4-difluoro-phenyl]-[1,3,4]oxadiazol-2-ylamino}-propane-1,2(R)-diol] | – | – |
| – | 150 to 152 °C (dec.) | 2400 nM | CCc1ccc(Nc2c(-c3nnc(NC[C@@H](O)CO)o3)ccc(F)c2F)c(F)c1 [Example 152, 3-{5-[2-(4-Ethyl-2-fluoro-phenylamino)-3,4-difluoro-phenyl]-[1,3,4]oxadiazol-2-ylamino}-propane-1,2(R)-diol] | – | – |
| – | 110 to 114 °C (dec.) | 110 nM | OCC(CO)Nc1nnc(-c2ccc(F)c(F)c2Nc2ccc(I)cc2F)o1 [Example 154, 2-{5-[3,4-Difluoro-2-(2-fluoro-4-iodo-phenylamino)-phenyl]-[1,3,4]oxadiazol-2-ylamino}-propane-1,3-diol] | – | – |
| – | 174 to 177 °C | 710 nM | C=Cc1ccc(Nc2c(-c3nnc(NCCN4CCOCC4)o3)ccc(F)c2F)c(F)c1 [Example 156, {5-[3,4-Difluoro-2-(2-fluoro-4-vinyl-phenylamino)-phenyl]-[1,3,4]oxadiazol-2-yl}-(2-morpholin-4-yl-ethyl)-amine] | – | – |
| – | – | – | OCCc1ccc(Nc2c(-c3nnc(NCCN4CCOCC4)o3)ccc(F)c2F)c(F)c1 [Example 157, 2-(4-{2,3-difluoro-6-[5-(2-morpholin-4-yl-ethylamino)-[1,3,4]oxadiazol-2-yl]-phenylamino}-3-fluoro-phenyl)-ethanol] | 33% | 31% |
| – | – | 5100 nM | OCCNc1nnc(-c2ccc(F)c(F)c2Nc2ccc(CCO)cc2F)o1 [Example 169, 2-(5-{3,4-difluoro-2-[2-fluoro-4-(2-hydroxy-ethyl)phenylamino]-phenyl}-[1,3,4]oxadiazol-2-ylamino)ethanol] | – | – |
